Data from patent publication US20240384250A1, “FIBROBLAST GROWTH FACTOR 23 MODULATING COMPOUNDS” (THE UAB RESEARCH FOUNDATION, priority 2021, published 2024).

System: FGF19 binding to FGFR isoforms 1c, 2c, 3c, 4
Assay: Pull-down and plate binding of FGF19 to FGFR isoforms with sKL or heparin
Set-up: species or system human
Method: To study the interaction between Fc-tagged FGFR isoforms (Fc-FGFR), FGF isoforms, and sKL, immunoprecipitation studies were conducted. Protein A beads (6501, BioVision) and protein G beads (6511, BioVision) were used at 25 μl of a 50% stock slurry per sample in a total bead volume of 50 μl. Beads were washed 5× in activity buffer (50 mM Tris [pH 7.4], 200 mM NaCl, 0.01% Tween 20). Bead spin-down assays were all performed for 2 minutes at 5000 g. Beads were resuspended in 1 ml of activity buffer in a 1.5-ml snap cap tube. One microgram of Fc-FGFR1 to 4 was incubated with the beads for 1 hour on a bead rotator. Control samples were incubated with 2 μg of anti-FGF antibody instead of Fc-FGFR. […] Samples were analyzed using SDS-PAGE and Western blotting.
Proteins were coated on 96-well plates (MaxiSorp; 439454, Thermo Fisher Scientific), and proteins were added to wells in 100 μl of enzyme-linked immunosorbent assay (ELISA) coating buffer (E107, Bethyl Laboratories) with a lid placed overtop and incubated at 4° C. overnight. […] Reactions were stopped with ELISA stop solution (E115, Bethyl Laboratories) and analyzed using the Synergy HI plate reader (BioTek) at 450 nm wavelength. […] As a control to remove background absorbance values, wells were coated with an equal amount of BSA to match the amount of protein coated in experimental wells and treated the same as experimental wells. […]

Chain of FGF19 binding to FGFR isoforms 1c, 2c, 3c, 4 (O95750 25-216): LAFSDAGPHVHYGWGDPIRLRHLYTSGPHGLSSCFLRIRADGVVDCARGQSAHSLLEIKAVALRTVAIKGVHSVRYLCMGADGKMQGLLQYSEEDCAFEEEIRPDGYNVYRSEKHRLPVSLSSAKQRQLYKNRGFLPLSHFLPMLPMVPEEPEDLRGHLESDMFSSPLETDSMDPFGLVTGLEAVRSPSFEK

Substance: heparin [reference compound]
- binding of FGF19 to any of the FGFR isoforms: does not mediate binding
